Results as given in US20240238269A1.
Converted amounts (≈) assume the structure as drawn. Read-outs that look alike come from different tables or passages of the source.

Legend:
[1] = tested on: HPV18; test: microbe, parasite or virus in culture; details: human papillomavirus 18, C-33-A
[2] = tested on: HPV11; test: microbe, parasite or virus in culture; details: human papillomavirus 11, C-33-A
[3] = tested on: HPV16; test: microbe, parasite or virus in culture; details: Human papillomavirus 16, C-33-A
[4] = tested on: HPV6; test: HPV6 transient transfection reporter plasmid replication assay; details: for EC50 / EC90: Alphapapillomavirus 10, C-33-A
[5] = tested on: Middle East Respiratory Syndrome Coronavirus (MERS-COV); test: microbe, parasite or virus in culture; format: cell-based; details: Vero 76
[6] = tested on: Herpes Simplex Virus 2; test: Antiviral activity against Herpes Simplex Virus 2; format: cell-based
[7] = tested on: human papillomavirus (HPV); test: Antiviral activity against human papillomavirus (HPV), overall conclusion; format: cell-based
Method: When the SI50 value>10, the compound was determined to be active against the virus.

[8] = tested on: HPV16; details: Human Papillomavirus 16 KP212151.1, C-33 A
[9] = tested on: Rift Valley Fever Virus (RVFV); test: microbe, parasite or virus in culture; format: cell-based
[10] = in vitro; details: African green monkey
[11] = tested on: Dengue Virus 2; test: Antiviral activity against Dengue Virus 2; format: cell-based
[12] = in vitro; details: human
[13] = tested on: Tacaribe Virus (TCRV); test: microbe, parasite or virus in culture; format: cell-based
[14] = tested on: HPV18; details: Human Papillomavirus 18 KC470230.1, C-33 A
[15] = tested on: Herpes Simplex Virus 1; test: Antiviral activity against Herpes Simplex Virus 1; format: cell-based
[16] = in vitro; details: dog
[17] = in vitro; details: human; remark: listed apart in the source
[18] = in vitro; details: human; remark: listed apart in the source
[19] = tested on: Novel coronavirus (SARS-COV-2); test: Antiviral activity against Novel Coronavirus; format: cell-based
[20] = tested on: Chikungunya virus (CHIKV); test: Antiviral activity against Chikungunya Virus; format: cell-based
[21] = tested on: HPV11; details: Human Papillomavirus 11 HE611260.1, C-33 A
[22] = tested on: Huh7; details: human
[23] = tested on: Human Coronavirus (α) 229E; test: Antiviral activity against Human Coronavirus (α); format: cell-based
[24] = tested on: Human Coronavirus (β) OC43; test: Antiviral activity against Human Coronavirus (β); format: cell-based
[25] = tested on: Influenza A H1N1; test: Antiviral activity against Influenza A H1N1; format: cell-based
[26] = tested on: other viruses; test: Antiviral activity against other (non-HPV) viruses, overall conclusion; format: cell-based
[27] = tested on: Varicella-zoster Virus; test: Antiviral activity against Varicella-zoster Virus; format: cell-based
[28] = HPV16 strain KP212151.1, C-33 A, concentration range 0.001-250 μM
[29] = Human Papillomavirus 16 KP212151.1, C-33 A, 0.001-250 μM
[30] = Human Papillomavirus 16 KP212151.1, C-33 A, 0.048-150 μM
[31] = Human Papillomavirus 6 FR751330.1, C-33 A

With Nc1nc2c(ncn2CCOCP(=O)(O)O)c(=O)[nH]1 [9-[2-(phosphonomethoxy)ethyl]guanine] the EC50 [1] was 630 nM, the EC90 [1] was over 150000 nM and the EC50 [2] was 1030 nM. It also gave an EC90 [2] of 4470 nM, an EC50 [3, 28] of 280 nM and an EC90 [3, 28] of 2300 nM. It also gave an EC50 [4] of 560 nM and an EC90 [4] of 6350 nM.
In the case of O=[N+]([O-])c1ccc(O)c2ncccc12, the “SI50 (CC50/EC50)” value ([5]; MERS Coronavirus EMC) is reported as 0, the EC50 ([5]; Middle East respiratory syndrome-related coronavirus) is reported as over 0.32 µg/mL and the EC50 [1] is reported as 1010 nM. For the same compound, the EC90 [1] was 3990 nM, the “SI50 (CC50/EC50)” value [6] was under 4 and the EC50 ([6]; Human alphaherpesvirus 2) was over 1200 nM. The “antiviral activity compared with the positive control drug” value ([7]; HPV, Tables 1 and 2) was “better than that of the positive control drug”, the “inhibitory activity against HPV” value ([7]; active when SI50 value>10) was “specific inhibitory activity against HPV” and the “SI50 (CC50/EC50)” value ([8]; 0.001-250 μM) was 297. For the same compound, the SI90 ([8]; 0.001-250 μM) was 143, the “SI50 (CC50/EC50)” value ([8]; 0.048-150 μM) was 23 and the SI90 ([8]; 0.048-150 μM) was 13. The “SI50 (CC50/EC50)” value ([9]; Rift Valley Fever Virus MP-12, Vero 76) was 1, the EC50 ([9]; Rift Valley fever virus, Vero 76) was over 0.16 µg/mL and the CC50 [10] was under 0.1 µg/mL. For the same compound, the “SI50 (CC50/EC50)” value [11] was 1.3, the EC50 ([11]; Dengue virus, Huh-7) was 0.32 µg/mL (≈ 1.68 µM) and the CC50 [12] was 0.37 µg/mL (≈ 1.95 µM). The EC50 ([13]; Mammarenavirus tacaribeense, Vero) was under 0.1 µg/mL, the “SI50 (CC50/EC50)” value ([13]; Tacaribe Virus TRVL 11573, Vero) was 1 and the EC50 [2] was 1040 nM. For the same compound, the EC90 [2] was 2990 nM, the “SI50 (CC50/EC50)” value [14] was 64 and the SI90 [14] was 16. For the same compound, the “SI50 (CC50/EC50)” value [15] was under 3.0, the EC50 ([15]; Human alphaherpesvirus 1) was over 1200 nM and the CC50 [16] was 1.2 µg/mL (≈ 6.31 µM). The EC50 [3, 29] was 260 nM, the EC90 [3, 29] was 540 nM and the EC50 [3, 30] was 2820 nM. The EC90 [3, 30] was 5110 nM, the CC50 [17] was 0.42 µg/mL (≈ 2.21 µM) and the CC50 at 48 h [18] was 55500 nM. For the same compound, the “SI50 (CC50/EC50)” value [19] was 3.1, the EC50 ([19]; Severe acute respiratory syndrome coronavirus 2, Vero 76) was 0.32 µg/mL (≈ 1.68 µM) and the “SI50 (CC50/EC50)” value [20] was 0. For the same compound, the EC50 ([20]; Chikungunya virus, Vero 76) was over 0.86 µg/mL, the “SI50 (CC50/EC50)” value [21] was 53 and the SI90 [21] was 19. For the same compound, the CC50 [22] was 0.4 µg/mL (≈ 2.1 µM), the EC50 [4] was 860 nM and the EC90 [4] was 5410 nM. For the same compound, the “SI50 (CC50/EC50)” value [4, 31] was 55, the SI90 [4, 31] was 9 and the “SI50 (CC50/EC50)” value [23] was 1.3. For the same compound, the EC50 ([23]; unidentified human coronavirus, Huh-7) was 0.32 µg/mL (≈ 1.68 µM), the “SI50 (CC50/EC50)” value [24] was 0 and the EC50 ([24]; unidentified human coronavirus, OC43) was over 0.37 µg/mL. For the same compound, the “SI50 (CC50/EC50)” value [25] was 3.8, the EC50 ([25]; Influenza A virus, H1N1, MDCK) was 0.32 µg/mL (≈ 1.68 µM) and the “inhibitory activity against other viruses” value [26] was “not observed against other viruses”. The “SI50 (CC50/EC50)” value [27] was under 3 and the EC50 ([27]; Human alphaherpesvirus 3) was over 240 nM.
